Read-outs that look alike come from different tables or passages of the source.
Legend:
human CB1 receptors = target: T1, human CB1 receptors (Homo sapiens, UniProt P21554); assay: cAMP assay in HEK-293 cells, hCB1 agonist; assay type: cell-based; settings: inhibition of forskolin-stimulated cAMP, HEK-293 cells
T1 construct: (cDNA clone) CNR01L000
In short: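 Agonist EC50 taken as concentration giving half inhibition of forskolin-driven cAMP, normalized to forskolin maximum, from sigmoidal curves. Whole HEK-293 cells stably expressing hCB1, in HEPES/BSA-containing HBSS, exposed 30 min at 37° C. to compound with forskolin (90 uM in 3× dilution); cAMP read after lysis.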

human CB1 (hCB1) = target: T2, human CB1 (hCB1) (Homo sapiens, UniProt P21554); assay: 35S GTPγS binding assay, hCB1 agonist; assay type: biochemical; settings: GTPγS agonist, HEK-293 membranes; read-out: hCB1 EC50 (GTPyS ag)
T2 construct: (cDNA clone) CNR01L000
T2 sequence (P21554 whole entry): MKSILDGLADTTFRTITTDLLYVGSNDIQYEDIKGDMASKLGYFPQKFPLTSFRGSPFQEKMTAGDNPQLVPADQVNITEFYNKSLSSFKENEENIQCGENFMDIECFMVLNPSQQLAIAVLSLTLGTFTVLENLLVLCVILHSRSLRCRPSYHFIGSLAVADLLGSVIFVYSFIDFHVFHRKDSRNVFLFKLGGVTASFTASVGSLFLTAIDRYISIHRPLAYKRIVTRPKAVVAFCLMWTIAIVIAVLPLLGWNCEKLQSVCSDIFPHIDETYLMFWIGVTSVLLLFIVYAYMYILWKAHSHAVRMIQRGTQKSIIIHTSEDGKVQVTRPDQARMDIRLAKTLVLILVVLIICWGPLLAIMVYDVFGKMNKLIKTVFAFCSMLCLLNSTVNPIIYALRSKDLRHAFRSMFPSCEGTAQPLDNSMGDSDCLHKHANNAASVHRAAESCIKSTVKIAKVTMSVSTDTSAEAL
Description: (§1) cDNA expression clones for human CB1 (hCB1, Genbank Accession No. AY225225) and human CB2 (hCB2, Genbank Accession No. AY242132) expressed in vector pcDNA3.1+ were purchased from UMR cDNA Resource Center, Rolla, Mo. (Clone ID CNR01L000 for hCB1; CNR0200000 for hCB2).
Stable, HEK-293-derived cell lines that recombinantly express hCBI or hCB2 were established. In brief, the clone hCB1 (CNR IL) or hCB2 (CNR2) was transfected into human embryonic kidney cells (HEK-293) using Lipofectamine 2000 (Gibco, Cat#11668-019) according to the manufacturer's protocol. Transfected clones were isolated by single colony purification and clones were screened for receptor expression using a whole cell, ^3H—CP 55,940 radioligand binding assay. HEK-293 stable cells were maintained in Dulbecco's modified Eagles medium (DMEM) containing 10% fetal bovine serum, 2 mM L-glutamine and 0.5 mg/mL G-418.
(§2) Membranes were isolated from transfected cells as follows. Monolayers of cultured cells were washed twice with phosphate-buffered saline (PBS). Cells were scraped into 20 mM HEPES, pH 7.4, 10 mM EDTA containing complete cocktail protease inhibitors (Roche, Catalog #11 697 498 001) and were homogenized by an electric-powered mechanical probe homogenizer (Omni GLH; probe G7-195S) for 40 seconds at 7000 rpm. Homogenates were centrifuged 10 minutes at 1000×g at 4° C. The supernatant was collected and was centrifuged for 1 hour at 40,000×g. The supernatant was then decanted and the resulting pellet was re-suspended in 20 mM HEPES, pH 7.4, 5 mM MgCl2, 1 mM EDTA, 10% sucrose with complete cocktail protease inhibitors. Protein concentration of membrane suspensions were measured by Bradford Protein Assay using bovine serum albumin as the standard (BioRad catalog #500-0006). Protein concentrations of membrane suspensions were adjusted with the final buffer in the range of 5 to 10 mg/mL and were stored at −80° C. until further use.
(§3) Functional assays which monitor G-protein coupled receptor or downstream cellular responses can be used to characterize potential CB1 receptor and/or CB2 receptor agonist or antagonist activities. Direct activation (or inhibition of activation) can be monitored using a GTPγS assay (membrane-based assay) or cAMP assay (whole cell-based assay).
(§4) ^35S GTPγS binding assays were performed by incubating recombinant cell membranes prepared above (5 μg) in the presence of scintillation proximity assay beads (SPA beads, Catalog #RPNQ0252 GE Healthcare, Buckinghamshire, England) in GTPγS binding buffer [50 mM HEPES (pH 7.4), 100 mM NaCl, 5 mM MgCl2, 0.001% saponin (Sigma catalog #S4521)] supplemented with 20 uM GDP (Sigma catalog #G7127) in the presence or absence of test compound. The reaction was carried out in 96-well microplates with 0.1 nM [^35S]GTPγS (specific activity=1250 Ci/mmol; Perkin Elmer catalog #NEG030X250UC) in a final volume of 100 uL. After a 90 min room temperature incubation, the reaction was analyzed using a scintillation counter (Perkin Elmer Microbeta instrument). Binding data were analyzed using GraphPad Prism.

human CB2 (hCB2) = target: T3, human CB2 (hCB2) (Homo sapiens, UniProt P34972); assay: 35S GTPγS binding assay, hCB2 agonist; assay type: biochemical
T3 construct: (cDNA clone) CNR0200000
T3 sequence (P34972 whole entry): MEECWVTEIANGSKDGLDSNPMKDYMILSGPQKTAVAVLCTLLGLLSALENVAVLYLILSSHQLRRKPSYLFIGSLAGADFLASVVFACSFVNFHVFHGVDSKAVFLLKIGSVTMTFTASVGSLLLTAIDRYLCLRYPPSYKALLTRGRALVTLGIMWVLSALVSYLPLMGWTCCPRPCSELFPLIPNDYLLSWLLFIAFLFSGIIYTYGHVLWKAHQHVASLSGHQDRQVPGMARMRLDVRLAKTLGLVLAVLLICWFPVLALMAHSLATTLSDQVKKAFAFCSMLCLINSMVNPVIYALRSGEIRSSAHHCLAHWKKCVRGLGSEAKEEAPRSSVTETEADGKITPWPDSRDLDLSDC
Procedure: as §1
as §2, with “Cells were scraped into 20 mM HEPES, pH 7.4, 10 mM EDTA containing complete cocktail protease inhibitors (Roche, Catalog #11 697 498 001) and were homogenized by an electric-powered mechanical probe homogenizer (Omni GLH; probe G7-195S) for 40 seconds at 7000 rpm.” left out
as §3, §4

human CB2 receptors = target: T4, human CB2 receptors (Homo sapiens, UniProt P34972); assay: cAMP assay in HEK-293 cells, hCB2 agonist; assay type: cell-based
T4 construct: (cDNA clone) CNR0200000
T4 sequence (P34972 whole entry): as above
In short: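 Stable hCB2 HEK-293 cells in HBSS/10 mM HEPES/0.1% fatty-acid-free BSA incubated 30 min at 37° C with compound; forskolin 90 uM in 3× compound mix.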

[1] = GTPγS agonist, HEK-293 membranes, read-out: hCB2 EC50 (GTPyS ag)

T1 sequence (P21554 whole entry): as the sequence (P21554 whole entry) above

| SMILES | hCB1 EC50 (cAMP ag, nM) (human CB1 receptors) | EC50 (human CB1 (hCB1)) [µM] | EC50 (human CB2 (hCB2); [1]) [µM] | EC50 (human CB2 (hCB2)) [µM] | EC50 (human CB2 receptors) [µM] | EC50 (human CB2 receptors; inhibition of forskolin-stimulated cAMP, HEK-293 cells, read-out: hCB2 EC50 (cAMP ag)) [µM] | hCB2 EC50 (cAMP ag, nM) (human CB2 receptors; inhibition of forskolin-stimulated cAMP, HEK-293 cells) |
| --- | --- | --- | --- | --- | --- | --- | --- |
| COc1ccc(C(=O)c2cc3cc(C)n(C(=S)SC)c3s2)cc1 [Compound 155, Methyl 2-(4-methoxybenzoyl)-5-methyl-6H-thieno[2,3-b]pyrrole-6-carbodithioate] | NS (NS means “Not Significant,” which means less than 30% agonist activity when compared to the positive control.) | > 10 | 0.1 to 1 |  |  |  |  |
| COc1ccc(C(=O)c2cc3cc(C)n(CCN4CCC(OC)CC4)c3s2)cn1 [Compound 156, (6-(2-(4-methoxypiperidin-1-yl)ethyl)-5-methyl-6H-thieno[2,3-b]pyrrol-2-yl)(6-methoxypyridin-3-yl)methanone] | NS (NS means “Not Significant,” which means less than 30% agonist activity when compared to the positive control.) | > 10 |  | > 10 |  |  |  |
| COc1ccc(C(=O)c2cc3cc(C)n(CC4CCOC4)c3s2)cn1 (centres unmarked) [Compound 159, (6-methoxypyridin-3-yl)(5-methyl-6-((tetrahydrofuran-3-yl)methyl)-6H-thieno[2,3-b]pyrrol-2-yl)methanone] | NS (NS means “Not Significant,” which means less than 30% agonist activity when compared to the positive control.) | > 10 |  | > 10 | 1 to 10 |  |  |
| COc1ccc(C(=O)c2cc3cc(C)n(CCN4CCOC(C)(C)C4)c3s2)cn1 [Compound 162, (6-(2-(2,2-dimethylmorpholino)ethyl)-5-methyl-6H-thieno[2,3-b]pyrrol-2-yl)(6-methoxypyridin-3-yl)methanone] | NS (NS means “Not Significant,” which means less than 30% agonist activity when compared to the positive control.) | > 10 | > 10 |  |  | 0.1 to 1 |  |
| COC(=O)Cn1c(C)cc2cc(C(=O)c3ccc(OC)nc3)sc21 [Compound 168, Methyl 2-(2-(6-methoxynicotinoyl)-5-methyl-6H-thieno[2,3-b]pyrrol-6-yl)acetate] | NS (NS means “Not Significant,” which means less than 30% agonist activity when compared to the positive control.) | > 10 | > 10 |  |  |  |  |
| COc1ccc(C(=O)c2cc3cc(C)n(C[C@@H]4COCCN4C)c3s2)cn1 [Compound 171, (R)-(6-methoxypyridin-3-yl)(5-methyl-6-((4-methylmorpholin-3-yl)methyl)-6H-thieno[2,3-b]pyrrol-2-yl)methanone] | NS (NS means “Not Significant,” which means less than 30% agonist activity when compared to the positive control.) | > 10 |  | > 10 |  |  |  |
| COc1ccc(C(=O)c2cc3cc(C)n(C)c3s2)cn1 [Compound 174, (5,6-dimethyl-6H-thieno[2,3-b]pyrrol-2-yl)(6-methoxypyridin-3-yl)methanone] | NS (NS means “Not Significant,” which means less than 30% agonist activity when compared to the positive control.) | > 10 | > 10 |  |  |  |  |
| COc1ccc(C(=O)c2cc3cc(C)n(CC4CCN(C(=O)OC(C)(C)C)CC4)c3s2)cn1 [Compound 179, tert-butyl 4((2-(6-methoxynicotinoyl)-5-methyl-6H-thieno[2,3-b]pyrrol-6-yl)methyl)piperidine-1-carboxylate] | NS (NS means “Not Significant,” which means less than 30% agonist activity when compared to the positive control.) | > 10 | > 10 |  |  |  |  |
| COc1ccc(C(=O)c2cc3cc(C)n(CCN4CCC(C(F)(F)F)CC4)c3s2)cn1 [Compound 181, (6-methoxypyridin-3-yl)(5-methyl-6-(2-(4-(trifluoromethyl)piperidin-1-yl)ethyl)-6H-thieno[2,3-b]pyrrol-2-yl)methanone] |  | 1 to 10 |  | 0.1 to 1 |  |  | NS (NS means “Not Significant,” which means less than 30% agonist activity when compared to the positive control.) |

Source: patent US20130029970A1 (priority 2009, published 2013)
